Consider 42 compounds from patent publication US6949571B2, “1,2-dihydropyridine compounds, process for preparation of the same and use thereof” (Eisai Co., Ltd., priority 2000, dated 2005).

Molecules are shown by their SMILES.
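Further: primary rat embryonic cortical neurons grown on an astrocyte layer in 96-well plates, used after at least 8 to 10 days in culture, Fura2-AM fluorescence ratio at 340/380 nm excitation.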

For the assay, the system named is AMPA receptor. The conditions noted are these: Table 1; primary culture of rat embryo cerebral cortex nerve cells, 2 μM AMPA, 1 μM MK-801.
Protocol: Cerebral cortex was cut out from the brain of rat of gestational 18 days and treated with trypsin and DNase to disperse the cells. The cells were flown by MEM containing 10% of serum, sown in a culture bottle and astrocytes were proliferated. The astrocytes were re-dispersed by trypsin and sown in a 96-well plate. After incubation for one week, it was confirmed that the astrocytes covered all over the bottom and then the nerve cells of cerebral cortex which was dispersed by the above method were sown thereupon. After incubation for 24 hours, the medium was changed, the incubation was carried out for one week and, after that, the medium was changed to that containing 1 μM of MK-801. Nerve cells which were incubated for not shorter than 8 to 10 days were used.
Calcium influx into the cells was measured using Fura2-AM which was a calcium-sensitive fluorescent dye. It was treated in a medium containing Fura2-AM for 1 hour, incorporated into the cells, exchanged to a Tyrode solution containing 1 μM MK-801 and stimulation was carried out using 2 μM AMPA. Change in the amount of calcium flown into the cells were measured as the change in the fluorescent intensity at the exciting wave length of 340/380 nm.
With `N#Cc1ccccc1-c1cc(-c2ccccc2[N+](=O)[O-])cn(-c2ccccc2)c1=O` [Example 1, 3-(2-Cyanophenyl)-5-(2-nitrophenyl)-1-phenyl-1,2-dihydropyridin-2-one], the midpoint of inhibition, the IC50, lay at 800 nM.

`N#Cc1ccccc1-c1cc(-c2ccccc2N)cn(-c2ccccc2)c1=O` [Example 2, 5-(2-Aminophenyl)-3-(2-cyanophenyl)-1-phenyl-1,2-dihydropyridin-2-one] yielded a concentration for half-maximal inhibition (IC50) of 1800 nM.

As for `CS(=O)(=O)Nc1ccccc1-c1cc(-c2ccccc2C#N)c(=O)n(-c2ccccc2)c1` [Example 3, 3-(2-Cyanophenyl)-5-(2-methylsulfonylaminophenyl)-1-phenyl-1,2-dihydropyridin-2-one], 300 nM corresponded to half-maximal inhibition (IC50).

Take `COc1ncc(-c2ccccn2)cc1-c1ccccc1C#N` [Example 5, 3-(2-Cyanophenyl)-5-(2-pyridyl)-2-methoxypyridine]: the concentration for half-maximal inhibition (IC50) stood at 600 nM.

`N#Cc1ccccc1-c1cc(-c2ccccn2)c[nH]c1=O` [Example 6, 3-(2-Cyanophenyl)-5-(2-pyridyl)-2(1H)-pyridone] showed a concentration for half-maximal inhibition (IC50) of 9300 nM.

As to `N#Cc1ccccc1-c1cc(-c2ccccn2)cn(-c2cccc([N+](=O)[O-])c2)c1=O` [Example 8, 3-(2-Cyanophenyl)-5-(2-pyridyl)-1-(3-nitrophenyl)-1,2-dihydropyridin-2-one], 100 nM corresponded to half-maximal inhibition (IC50).

In turn, `CS(=O)(=O)Nc1cccc(-n2cc(-c3ccccn3)cc(-c3ccccc3C#N)c2=O)c1` [Example 10, 3-(2-Cyanophenyl)-5-(2-pyridyl)-1-(3-methylsulfonylaminophenyl)-1,2-dihydropyridin-2-one] yielded an IC50 of 50 nM.

`CNc1cccc(-n2cc(-c3ccccn3)cc(-c3ccccc3C#N)c2=O)c1` [Example 11, 3-(2-Cyanophenyl)-5-(2-pyridyl)-1-(3-methylaminophenyl)-1,2-dihydropyridin-2-one] returned a 50% inhibitory concentration (IC50) of 60 nM.

With `COCC1CN(c2cccc(-n3cc(-c4ccccn4)cc(-c4ccccc4C#N)c3=O)c2)C(=O)O1` (stereo not drawn) [Example 13, 3-(2-Cyanophenyl)-5-(2-pyridyl)-1-[3-(5-methoxymethyl-2-oxazolidinon-3-yl)-phenyl]-1,2-dihydropyridin-2-one], the 50% inhibitory concentration (IC50) came out at 200 nM.

In turn, `COC(=O)c1cccc(-n2cc(-c3ccccn3)cc(-c3ccccc3C#N)c2=O)c1` [Example 14, 3-(2-Cyanophenyl)-5-(2-pyridyl)-1-(3-methoxycarbonylphenyl)-1,2-dihydropyridin-2-one] showed a half-inhibitory concentration (IC50) of 100 nM.

The compound `CNC(=O)c1cccc(-n2cc(-c3ccccn3)cc(-c3ccccc3C#N)c2=O)c1` [Example 15, 3-(2-Cyanophenyl)-5-(2-pyridyl)-1-(3-methylaminocarbonylphenyl)-1,2-dihydropyridin-2-one] came in with an IC50 of 50 nM.

On to `COc1ccc(-n2cc(-c3ccccn3)cc(-c3ccccc3Cl)c2=O)cc1` [Example 17, 3-(2-Chlorophenyl)-5-(2-pyridyl)-1-(4-methoxyphenyl)-1,2-dihydropyridin-2-one], for which inhibition was half-maximal at 700 nM (IC50).

With `O=c1c(-c2ccccc2Cl)cc(-c2ccccn2)cn1-c1ccc(O)cc1` [Example 18, 3-(2-Chlorophenyl)-5-(2-pyridyl)-1-(4-hydroxyphenyl)-1,2-dihydropyridin-2-one], the IC50 is 20 nM.

In turn, `CN(C)CCOc1ccc(-n2cc(-c3ccccn3)cc(-c3ccccc3Cl)c2=O)cc1` [Example 19, 3-(2-Chlorophenyl)-5-(2-pyridyl)-1-(4-dimethylaminoethoxyphenyl)-1,2-dihydropyridin-2-one] returned an IC50 of 80 nM.

`N#Cc1ccccc1-c1cc(-c2ccccn2)cn(-c2cccc(C=O)c2)c1=O` [Example 20, 3-(2-Cyanophenyl)-5-(2-pyridyl)-1-(3-formylphenyl)-1,2-dihydropyridin-2-one]: half-maximal inhibition (IC50) required 40 nM.

Regarding `N#Cc1ccccc1-c1cc(-c2ccccn2)cn(-c2cccc(CO)c2)c1=O` [Example 21, 3-(2-Cyanophenyl)-5-(2-pyridyl)-1-(3-hydroxymethylphenyl)-1,2-dihydropyridin-2-one], the IC50 was 30 nM.

For the compound `N#CCc1cccc(-n2cc(-c3ccccn3)cc(-c3ccccc3C#N)c2=O)c1` [Example 22, 3-(2-Cyanophenyl)-5-(2-pyridyl)-1-(3-cyanomethylphenyl)-1,2-dihydropyridin-2-one], it took 60 nM to reach half-maximal inhibition (IC50).

`CC(=O)NCc1cccc(-n2cc(-c3ccccn3)cc(-c3ccccc3C#N)c2=O)c1` [Example 23, 3-(2-Cyanophenyl)-5-(2-pyridyl)-1-(3-acetylaminomethylphenyl)-1,2-dihydropyridin-2-one] came in with a half-maximal inhibitory concentration (IC50) of 200 nM.

Compound `CS(=O)(=O)NCc1cccc(-n2cc(-c3ccccn3)cc(-c3ccccc3C#N)c2=O)c1` [Example 24, 3-(2-Cyanophenyl)-5-(2-pyridyl)-1-(3-methylsulfonylaminomethylphenyl)-1,2-dihydropyridin-2-one] came in with an IC50 of 200 nM.

`CC(=O)OCc1cccc(-n2cc(-c3ccccn3)cc(-c3ccccc3C#N)c2=O)c1` [Example 25, 3-(2-Cyanophenyl)-5-(2-pyridyl)-1-(3-acetoxymethylphenyl)-1,2-dihydropyridin-2-one] showed an IC50 of 30 nM.

In the case of `CSc1ccc(-n2cc(-c3ccccn3)cc(-c3ccccc3C#N)c2=O)cc1` [Example 26, 3-(2-Cyanophenyl)-5-(2-pyridyl)-1-(4-methylthiophenyl)-1,2-dihydropyridin-2-one], the 50% inhibitory concentration (IC50) came to 20 nM.

Compound `CS(=O)(=O)c1ccc(-n2cc(-c3ccccn3)cc(-c3ccccc3C#N)c2=O)cc1` [Example 27, 3-(2-Cyanophenyl)-5-(2-pyridyl)-1-(4-methylsulfonylphenyl)-1,2-dihydropyridin-2-one] registered a half-inhibitory concentration (IC50) of 50 nM.

`N#Cc1ccccc1-c1cc(-c2ccsc2C=O)cn(-c2ccccc2)c1=O` [Example 28, 3-(2-Cyanophenyl)-5-(2-formylthiophen-3-yl)-1-phenyl-1,2-dihydropyridin-2-one] registered an IC50 of 200 nM.

Consider `CCN(CC)Cc1sccc1-c1cc(-c2ccccc2C#N)c(=O)n(-c2ccccc2)c1` [Example 29, 3-(2-Cyanophenyl)-5-(2-diethylaminomethylthiophen-3-yl)-1-phenyl-1,2-dihydropyridin-2-one], for which the midpoint of inhibition, the IC50, lay at 100 nM.

As for `N#Cc1ccccc1-c1cc(-c2ccsc2CO)cn(-c2ccccc2)c1=O` [Example 30, 3-(2-Cyanophenyl)-5-(2-hydroxymethylthiophen-3-yl)-1-phenyl-1,2-dihydropyridin-2-one], the IC50 is 40 nM.

Consider `N#Cc1ccccc1-c1cc(-c2ccccn2)cn(Cc2ccccc2)c1=O` [Example 31, 3-(2-Cyanophenyl)-5-(2-pyridyl)-1-benzyl-1,2-dihydropyridin-2-one], for which the IC50 came to 100 nM.

The compound `N#Cc1ccccc1-c1cc(-c2ccccn2)c(=O)n(-c2ccccc2)c1` [Example 33, 3-(2-Pyridyl)-5-(2-cyanophenyl)-1-phenyl-1,2-dihydropyridin-2-one] came in with an IC50 of 700 nM.

`N#Cc1ccccc1-c1cc(-c2cccnc2)cn(-c2ccccc2)c1=O` [Example 34, 3-(2-Cyanophenyl)-5-(3-pyridyl)-1-phenyl-1,2-dihydropyridin-2-one] registered an IC50 of 3700 nM.

Take `N#Cc1ccccc1-c1cc(-c2ccncc2)cn(-c2ccccc2)c1=O` [Example 35, 3-(2-Cyanophenyl)-5-(4-pyridyl)-1-phenyl-1,2-dihydropyridin-2-one]: the IC50 came out at 3100 nM.

For the compound `N#Cc1ccccc1-c1cc(-c2ccccc2C#N)c(=O)n(-c2ccccc2)c1` [Example 36, 3-(2-Cyanophenyl)-5-(2-cyanophenyl)-1-phenyl-1,2-dihydropyridin-2-one], inhibition was half-maximal at 1100 nM (IC50).

In turn, `O=c1c(-c2ccccc2)cc(-c2ccccc2)cn1-c1ccccn1` [Example 37, 3,5-Diphenyl-1-(2-pyridyl)-1,2-dihydropyridin-2-one] registered a 50% inhibitory concentration (IC50) of 700 nM.

The compound `N#Cc1ccccc1-c1cc(-c2ccccc2)c(=O)n(-c2ccccn2)c1` [Example 38, 3-Phenyl-5-(2-cyanophenyl)-1-(2-pyridyl)-1,2-dihydropyridin-2-one] gave a half-maximal inhibitory concentration (IC50) of 6300 nM.

`N#Cc1ccccc1-c1cc(-c2ccccc2)cn(-c2ccccn2)c1=O` [Example 39, 3-(2-Cyanophenyl)-5-phenyl-1-(2-pyridyl)-1,2-dihydropyridin-2-one] had an IC50 of 300 nM.

`COc1ccccc1-c1cc(-c2ccccc2C#N)c(=O)n(-c2ccccc2)c1` [Example 42, 3-(2-Cyanophenyl)-5-(2-methoxyphenyl)-1-phenyl-1,2-dihydropyridin-2-one] displayed a 50% inhibitory concentration (IC50) of 200 nM.

The compound `COc1ccc(-c2cc(-c3ccccc3C#N)c(=O)n(-c3ccccc3)c2)cc1OC` [Example 43, 3-(2-Cyanophenyl)-5-(3,4-dimethoxyphenyl)-1-phenyl-1,2-dihydropyridin-2-one] returned an IC50 of 500 nM.

With `N#Cc1ccccc1-c1cc(-c2ccsc2)cn(-c2ccccc2)c1=O` [Example 44, 3-(2-Cyanophenyl)-5-(thiophen-3-yl)-1-phenyl-1,2-dihydropyridin-2-one], the IC50 was 300 nM.

Take `N#Cc1ccccc1-c1cc(-c2ccccc2F)cn(-c2ccccc2)c1=O` [Example 45, 3-(2-Cyanophenyl)-5-(2-fluorophenyl)-1-phenyl-1,2-dihydropyridin-2-one]: the IC50 came to 200 nM.

Turning to `N#Cc1ccccc1-c1cc(-c2cccs2)cn(-c2ccccc2)c1=O` [Example 46, 3-(2-Cyanophenyl)-5-(thiophen-2-yl)-1-phenyl-1,2-dihydropyridin-2-one], the IC50 is 400 nM.

`N#Cc1ccccc1-c1cc(-c2ccoc2)cn(-c2ccccc2)c1=O` [Example 48] had an IC50 of 40 nM.

The compound `N#Cc1ccccc1-c1cc(-c2ccco2)cn(-c2ccccc2)c1=O` [Example 49] registered an IC50 of 200 nM.

`COc1ccccc1-c1cc(-c2ccccc2C#N)c(=O)n(-c2cccnc2)c1` [Example 52, 3-(2-Cyanophenyl)-5-(2-methoxyphenyl)-1-(3-pyridyl)-1,2-dihydropyridin-2-one] registered an IC50 of 1100 nM.

With `COc1ccccc1-c1cc(-c2ccccn2)cn(-c2ccccc2)c1=O` [Example 55, 3-(2-Methoxyphenyl)-5-(2-pyridyl)-1-phenyl-1,2-dihydropyridin-2-one], the half-maximal inhibitory concentration (IC50) was 800 nM.

A word on the IC50: it is the concentration that inhibits the measured activity by half.
